Test results: patent US20260018245A1, “SYSTEMS AND METHODS FOR IDENTIFYING AND TARGETING COLLATERAL LETHAL GENES” (The Regents of the University of Michigan, priority 2022, published 2026)

Experiments:
Format in all cases: cell-based
[1] = test system: parental ovarian cancer lines and isogenic SKOV3 lines; assay: Viability with MTHFD2 inhibitor and uridine supplementation; settings: uridine 50 μM supplementation
Description: FIG. 15 Investigating metabolic consequence of Complex III impairment and activity of paralogous pathways other than oxidative MTHFD2. (a) Effect of MTHFD2 inhibitor ([…]) and uridine (50 μM) supplementation on viability of parental ovarian cancer lines that are UQCR11—intact (SKOV3) or UQCR11-null (HeyA8, OVCAR8, CAOV3). Data are representative of two independent experiments and presented as mean±s.d. (n=6). Data analyzed with one-way ANOVA with Tukey's correction for multiple comparisons. (b) Effect of MTHFD2 inhibitor and uridine supplementation on viability of isogenic SKOV3 lines expressing shScramble or shUQCR11. […] Data analyzed with one-way ANOVA with Tukey's correction for multiple comparisons. […] (n=6) and analyzed using two-tailed Student's t-test. (d) mRNA expression of NNT, IDH2, IDH3A measured via qRT-PCR after knocking down with shNNT, shIDH2, and shIDH3A, relative to scramble shRNA (shScr), verifying knockdown efficiency in SKOV3 and OVCAR8 cell-lines. […] Data analyzed using unpaired two-tailed Student's t-test. […] Data are analyzed using ordinary one-way ANOVA with multiple comparisons. […] Loss of viability calculated by comparing respective viability in vehicle control-treated cells to MTHFD2 inhibitor-treated cells. […] (n=6) and analyzed using ordinary one-way ANOVA with Dunnett's correction for multiple comparisons. Error bars are calculated using propagation of error principles.

[2] = test system: reductive MTHFD2 flux in SKOV3 cells; assay: Reductive MTHFD2 flux by 2,3,3-[2H]-serine tracing; settings: SKOV3, increasing rotenone doses, 8 h
Description: (§1) FIG. 4 Dynamic flux analysis with parallel tracers to quantify oxidative MTHFD2 flux. a, Oxidative MTHFD2 flux and percentage decrease in OCRfollowing MTHFD2 inhibition in SKOV3 cells treated with rotenone (0, 31, 62, 125, 250, 500 or 1,000 nM) and MTHFD2 inhibitor (0 or 60 μM). Oxidative MTHFD2 flux is proportional to [2H1]-serine/[2H1]-NADH enrichment in cells cultured with 4-[2H]-glucose for 8 h. Percentage decrease in OCR is estimated in SKOV3 cells treated with 60 μM MTHFD2i compared with 0 μM MTHFD2i. Oxidative flux data are combined from two independent experiments (n=4), with mean±s.d. estimated using error propagation. […] (n=6) and analysed using two-tailed Welch's t-test. e, Ratio of [2H2]-serine/[2H]-NADH enrichment in SKOV3 and OVCAR8 cells at 2 h after combined tracer introduction of 4-[2H]-glucose and [2H]-formate, representing the normalized contribution of [2H]-NADH to [2H2]-serine via oxidative MTHFD2 flux. Data combined from two independent experiments (n=6), with mean±s.d. estimated using error propagation and analysed by two-tailed Welch's t-test. f, [2H2]-serine enrichment in SKOV3 cells expressing shScramble or shUQCR11 at 2 h after combined tracer introduction of 4-[2H]-glucose and [2H]-formate. […] (n=5) and analysed using one-tailed non-parametric Mann-Whitney test. […]

[3] = test system: oxidative MTHFD2 flux in SKOV3 cells; assay: Oxidative MTHFD2 flux by 4-[2H]-glucose tracing; settings: SKOV3, increasing rotenone doses (0-1,000 nM), 8 h
Description: as §1

[4] = test system: SKOV3 cells; assay: Oxygen consumption rate (OCR) measurement; settings: SKOV3, increasing rotenone concentrations
Description: FIG. 4 Dynamic flux analysis with parallel tracers to quantify oxidative MTHFD2 flux. a, Oxidative MTHFD2 flux and percentage decrease in OCRfollowing MTHFD2 inhibition in SKOV3 cells treated with rotenone (0, 31, 62, 125, 250, 500 or 1,000 nM) and MTHFD2 inhibitor (0 or 60 μM). Oxidative MTHFD2 flux is proportional to [2H1]-serine/[2H1]-NADH enrichment in cells cultured with 4-[2H]-glucose for 8 h. Percentage decrease in OCR is estimated in SKOV3 cells treated with 60 μM MTHFD2i compared with 0 μM MTHFD2i. Oxidative flux data are combined from two independent experiments (n=4), with mean±s.d. estimated using error propagation. OCR data are representative of two independent experiments and presented as mean±s.d. estimated using error propagation (n=5). b, Reductive MTHFD2 flux and basal OCR in SKOV3 cells treated with rotenone (0, 31, 62, 125, 250 or 1,000 nM) and MTHFD2 inhibitor (0 or 60 μM). Reductive MTHFD2 flux is proportional to [2H1]-NADH in cells cultured with 2,3,3-[2H]-serine for 8 h. OCR data are representative of two independent experiments and presented as mean±s.e.m. (n=5). c, Schematic of combination tracer experiment with 4-[2H]-glucose and [2H]-formate to track oxidative MTHFD2 flux. […] (n=6) and analysed using two-tailed Welch's t-test. e, Ratio of [2H2]-serine/[2H]-NADH enrichment in SKOV3 and OVCAR8 cells at 2 h after combined tracer introduction of 4-[2H]-glucose and [2H]-formate, representing the normalized contribution of [2H]-NADH to [2H2]-serine via oxidative MTHFD2 flux. Data combined from two independent experiments (n=6), with mean±s.d. estimated using error propagation and analysed by two-tailed Welch's t-test. f, [2H2]-serine enrichment in SKOV3 cells expressing shScramble or shUQCR11 at 2 h after combined tracer introduction of 4-[2H]-glucose and [2H]-formate. […] (n=5) and analysed using one-tailed non-parametric Mann-Whitney test.
OCR measurement. […] Live OCR was measured for up to 16 h after attaching the lid.
Mito stress test with the Seahorse analyser. Mitochondrial OCR was measured using a Seahorse XFe96 analyser (Agilent Technologies). […]

SMILES | rescue of cells from MTHFD2 inhibition [1] | reductive MTHFD2 flux [2] | oxidative MTHFD2 flux [3] | basal OCR [4]
O=c1ccn([C@@H]2O[C@H](CO)[C@@H](O)[C@H]2O)c(=O)[nH]1 [uridine] | unable to rescue | – | – | –
C=C(C)[C@H]1Cc2c(ccc3c2O[C@@H]2COc4cc(OC)c(OC)cc4[C@@H]2C3=O)O1 [rotenone] | – | modest increase at low rotenone doses, which became most pronounced at the highest doses | first increased with increasing, yet low, rotenone doses but returned to original levels as doses were further increased | monotonic decrease
